Source: publication PMC3909880 (Nature communications, 2013)

Tested on: M. tuberculosis IAR2 mutant (mmpL3 S288T)
Assay type: cell-based, Mycobacterium tuberculosis

Compound | MIC for IAR2 [µg/mL] | Fold change in MIC for IAR2
NCC[C@H](O)C(=O)N[C@@H]1C[C@H](N)[C@@H](O[C@H]2O[C@H](CN)[C@@H](O)[C@H](O)[C@H]2O)[C@H](O)[C@H]1O[C@H]1O[C@H](CO)[C@@H](O)[C@H](N)[C@H]1O [Amikacin] | 1 | –
CC[C@@H](CO)NCCN[C@@H](CC)CO [Ethambutol] | 1 | –
NNC(=O)c1ccncc1 [Isoniazid] | 0.04 | –
NC[C@H]1O[C@H](O[C@H]2[C@H](O)[C@@H](O[C@H]3O[C@H](CO)[C@@H](O)[C@H](N)[C@H]3O)[C@H](N)C[C@@H]2N)[C@H](O)[C@@H](O)[C@@H]1O [Kanamycin] | 2 | –
C[C@H]1COc2c(N3CCN(C)CC3)c(F)cc3c(=O)c(C(=O)O)cn1c23 [Levofloxacin] | 0.25 | –
CO[C@H]1/C=C/O[C@@]2(C)Oc3c(C)c(O)c4c(O)c(c(/C=N/N5CCN(C)CC5)c(O)c4c3C2=O)NC(=O)/C(C)=C\C=C\[C@H](C)[C@H](O)[C@@H](C)[C@@H](O)[C@@H](C)[C@H](OC(C)=O)[C@@H]1C [Rifampin] | 0.03125 | 0.25
CC(C)=CCC/C(C)=C/CNCCNC1C2CC3CC(C2)CC1C3 (stereo not shown) [SQ109] | 4 | 16
Capreomycin | 1 | –
